Experimental data: patent US11339447B2, “System and method for determining Kareniticin sensitivity on cancer” (CROWN BIOSCIENCE, INC. (TAICANG), priority 2017, dated 2022)

Key:
Test in all cases: karenitecin treatment of PDX model
Type in all cases: in vivo
Parameters in all cases: key to Response: responder: responded to karenitecin treatment (AUC<0.5 and TGI>0.8); non_responder: did not respond to karenitecin treatment (AUC>0.5 and TGI<0.6)
Conditions in all cases: karenitecin treatment for two weeks
PDX CR2528 = test system: PDX CR2528
Method: (§1) A cohort of 48 PDX models in 8 cancers were used in this study. Those models were subject to karenitecin treatment for two weeks. Both tumor growth inhibition (TGI) and median AUC (area under curve) ratio, a newly developed metric to evaluate drug efficacy, were calculated (Table 1). Those models can be divided into two categories according to TGI and median AUC ratio.

PDX CR6249 = test system: PDX CR6249
Method: as §1

PDX ES0042 = test system: PDX ES0042
Method: as §1

PDX ES0110 = test system: PDX ES0110
Method: as §1

PDX ES0176 = test system: PDX ES0176
Method: as §1

PDX ES0201 = test system: PDX ES0201
Method: as §1

PDX GA3102 = test system: PDX GA3102
Method: as §1

PDX LU1116 = test system: PDX LU1116
Method: as §1

PDX LU1144 = test system: PDX LU1144
Method: as §1

PDX LU1215 = test system: PDX LU1215
Method: as §1

PDX LU1235 = test system: PDX LU1235
Method: as §1

PDX LU1901 = test system: PDX LU1901
Method: as §1

PDX LU6429 = test system: PDX LU6429
Method: as §1

PDX OV0276 = test system: PDX OV0276
Method: as §1

CC[C@@]1(O)C(=O)OCc2c1cc1n(c2=O)Cc2c-1nc1ccccc1c2CC[Si](C)(C)C [karenitecin]
Median AUC ratio (PDX CR2528): 1.014 | Response (PDX CR2528): non_responder | TGI (PDX CR2528): 0.519 | Median AUC ratio (PDX CR6249): −0.712 | Response (PDX CR6249): responder | TGI (PDX CR6249): 1.253 | Median AUC ratio (PDX ES0042): −0.100 | Response (PDX ES0042): responder | TGI (PDX ES0042): 1.128 | Median AUC ratio (PDX ES0110): 0.344 | Response (PDX ES0110): responder | TGI (PDX ES0110): 1.010 | Median AUC ratio (PDX ES0176): 1.242 | Response (PDX ES0176): non_responder | TGI (PDX ES0176): −0.177 | Median AUC ratio (PDX ES0201): 1.093 | Response (PDX ES0201): non_responder | TGI (PDX ES0201): 0.529 | Median AUC ratio (PDX GA3102): 0.084 | Response (PDX GA3102): responder | TGI (PDX GA3102): 1.061 | Median AUC ratio (PDX LU1116): 0.111 | Response (PDX LU1116): responder | TGI (PDX LU1116): 1.250 | Median AUC ratio (PDX LU1144): 1.056 | Response (PDX LU1144): non_responder | TGI (PDX LU1144): 0.378 | Median AUC ratio (PDX LU1215): 0.232 | Response (PDX LU1215): responder | TGI (PDX LU1215): 1.006 | Median AUC ratio (PDX LU1235): −0.018 | Response (PDX LU1235): responder | TGI (PDX LU1235): 0.932 | Median AUC ratio (PDX LU1901): −0.295 | Response (PDX LU1901): responder | TGI (PDX LU1901): 1.077 | Median AUC ratio (PDX LU6429): 1.106 | Response (PDX LU6429): non_responder | TGI (PDX LU6429): 0.241 | Median AUC ratio (PDX OV0276): 0.314 | Response (PDX OV0276): responder | TGI (PDX OV0276): 1.103
